Experiments:
C57BL/6NCrlBr mice = test: Mouse object placement (OP) task after subchronic PCP; assay type: in vivo
Description: Subchronic PCP treatment: The subPCP administration regimen used in rats was conducted as described in ([Goetghebeur and Dias, 2009]), which is a reliable method for inducing deficits in our hands. Rats in the subPCP experiments received injections of 5 mg/mL PCP or vehicle (saline) s.c. at a 1 mL/kg injection volume twice per day for 7 days. […] The mouse subPCP regimen was conducted as described in [Pedersen et al. (2014)]. Briefly, mice received vehicle or PCP (1.3 mg/mL concentration, 10 mL/kg injection volume) s.c once per day for 14 days followed by a 7-day washout prior to experimentation.
Object placement and OR tasks in mice were executed in Perspex boxes measuring 40 × 40 cm with dark gray walls and a white floor. The tests were conducted during the light phase, yet in a subdued light (≈20 lux) and with the radio turned on in the background. Each trial was recorder by a camera mounted above the test arenas and later scored manually.
Objects in the mouse OP task consisted of small stork sculptures made of plaster, which were 11.5 cm in height, with a roughly rectangle-shaped base 7.5 cm in length and 4.8 cm in width. For the mouse OR task, objects consisted of (1) small cylindrical pepper mills (purchased empty, having never contained spice) made of clear plastic (10.5 cm in height, 4.5 cm diameter), and (2) small salt shakers made of light blue glass (again, purchased empty; 11.5 cm in height, 4.5 cm diameter). […]
The primary dependent measure for the OR and object placement tasks was a novel object or novel placement preference score, which were calculated from raw object investigation times using the following equation: Preference Score = ITN/(ITN + ITF)^∗100, where ITN represents the investigation time for the novel object or placement, and ITF represents the investigation for the familiar object or placement. Total exploration times from the information and test trials were analyzed for OP and OR experiments. Preference score and total exploration time data was analyzed for treatment group differences using a one-way between-subjects ANOVA. […]

GABAB receptor = target: T1, GABAB receptor (Rattus norvegicus, UniProt Q9Z0U4); test: Ex vivo autoradiography, GABAB receptor saturation binding ([3H]CGP54626), medial prefrontal cortex
T1 construct: 12 μm coronal sections were collected from an area ranging from approximately +4.2 mm to +2.3 mm anterior to Bregma; from tissue; host or cells: rat brain cryosections, medial prefrontal cortex (prelimbic and infralimbic)
T1 sequence (Q9Z0U4 17-960 limits assumed): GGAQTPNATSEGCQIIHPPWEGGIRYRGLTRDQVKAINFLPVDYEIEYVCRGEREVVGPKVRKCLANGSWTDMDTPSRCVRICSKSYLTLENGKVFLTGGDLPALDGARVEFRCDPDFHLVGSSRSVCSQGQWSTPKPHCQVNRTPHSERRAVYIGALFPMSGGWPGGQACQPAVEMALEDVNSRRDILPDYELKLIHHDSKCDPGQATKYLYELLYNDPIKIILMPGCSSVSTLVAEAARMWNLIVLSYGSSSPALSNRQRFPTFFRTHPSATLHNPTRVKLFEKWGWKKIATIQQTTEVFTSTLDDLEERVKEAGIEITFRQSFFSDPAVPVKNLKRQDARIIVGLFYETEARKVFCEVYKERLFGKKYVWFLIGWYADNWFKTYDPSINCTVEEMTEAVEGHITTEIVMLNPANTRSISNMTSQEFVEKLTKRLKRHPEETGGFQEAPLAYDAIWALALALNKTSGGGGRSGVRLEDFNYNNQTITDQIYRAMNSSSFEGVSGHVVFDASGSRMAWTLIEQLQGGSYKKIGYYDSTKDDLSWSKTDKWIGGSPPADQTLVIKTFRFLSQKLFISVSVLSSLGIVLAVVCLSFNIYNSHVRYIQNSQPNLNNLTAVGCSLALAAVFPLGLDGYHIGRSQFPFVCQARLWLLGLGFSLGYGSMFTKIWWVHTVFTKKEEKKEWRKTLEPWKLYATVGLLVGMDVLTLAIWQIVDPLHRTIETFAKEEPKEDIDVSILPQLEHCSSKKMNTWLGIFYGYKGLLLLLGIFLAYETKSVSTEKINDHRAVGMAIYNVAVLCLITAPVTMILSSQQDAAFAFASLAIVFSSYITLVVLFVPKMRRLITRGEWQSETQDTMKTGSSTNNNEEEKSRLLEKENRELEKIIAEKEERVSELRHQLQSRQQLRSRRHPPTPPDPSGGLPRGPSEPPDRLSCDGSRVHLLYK
T1 sequence (O88871 41-940 partner): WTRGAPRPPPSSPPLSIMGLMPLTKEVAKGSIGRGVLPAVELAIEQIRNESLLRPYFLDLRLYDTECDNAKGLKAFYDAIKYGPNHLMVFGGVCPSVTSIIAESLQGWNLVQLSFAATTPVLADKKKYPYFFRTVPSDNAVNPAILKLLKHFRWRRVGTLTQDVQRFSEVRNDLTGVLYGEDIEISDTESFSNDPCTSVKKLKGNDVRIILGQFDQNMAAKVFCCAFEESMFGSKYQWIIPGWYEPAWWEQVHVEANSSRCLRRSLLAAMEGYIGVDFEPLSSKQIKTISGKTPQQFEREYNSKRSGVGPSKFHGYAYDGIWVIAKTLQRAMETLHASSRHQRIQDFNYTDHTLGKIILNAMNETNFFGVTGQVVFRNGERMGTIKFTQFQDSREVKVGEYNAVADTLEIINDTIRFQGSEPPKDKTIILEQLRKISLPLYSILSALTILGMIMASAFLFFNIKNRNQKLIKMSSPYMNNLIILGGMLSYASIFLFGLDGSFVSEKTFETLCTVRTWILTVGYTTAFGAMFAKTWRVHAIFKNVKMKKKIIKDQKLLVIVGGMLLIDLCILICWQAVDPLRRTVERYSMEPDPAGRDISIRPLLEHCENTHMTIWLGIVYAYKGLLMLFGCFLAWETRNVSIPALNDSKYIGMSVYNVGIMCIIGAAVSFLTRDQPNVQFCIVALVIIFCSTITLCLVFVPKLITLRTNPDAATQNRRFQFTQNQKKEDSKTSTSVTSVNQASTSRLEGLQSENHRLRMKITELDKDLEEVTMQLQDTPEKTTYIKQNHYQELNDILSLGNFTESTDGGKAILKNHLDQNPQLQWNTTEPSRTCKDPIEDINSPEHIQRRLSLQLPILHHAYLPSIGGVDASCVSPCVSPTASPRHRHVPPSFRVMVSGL
Description: Rats used in ex vivo autoradiography (EVA) experiments were randomly assigned to one of four experimental groups characterized by either subchronic saline or PCP (as described above) along with either vehicle or vortioxetine-infused food (1.8 g vortioxetine/kg food weight, as described in the attentional set shifting task). On day 8 of PCP withdrawal, rats were anesthetized using CO2 and killed by decapitation. Brains were quickly and gently removed from the skull, flash frozen on powdered dry ice, and stored at -20°C until sectioning. Later, 12 μm coronal sections were collected from an area ranging from approximately +4.2 mm to +2.3 mm anterior to Bregma ([Paxinos and Watson, 1998]) using a cryostat (MicroM, Germany) and were thaw-mounted on glass microscope slides. This range of coronal slices was chosen in order to study the prelimbic and infralimbic subregions of the medial prefrontal cortex, given the importance of these regions in tests of executive function such as the attentional set shifting task ([Ng et al., 2007]). After the tissue mounted on the microscope slides had dried thoroughly (in order to reduce damage from freezing), slides were packed into slide boxes with desiccator pellets, and stored at -20°C for use in EVA saturation binding and competition experiments.
Each of the EVA procedures used in this study are variations on a similar theme. On the day of an experiment, slide-boxes were defrosted under a constant stream of air at room temperature until the boxes were dry and equilibrated with the environment in terms of temperature. This step was undertaken in order to ensure brain tissue was not damaged by frosting due to a sudden change in humidity. Prior to any binding experiments, slides were preincubated in the appropriate preincubation buffer and dried at room temperature. Subsequently, tissue was incubated in an assay buffer containing a radioligand appropriate for the receptor of interest, then rinsed in assay buffer, and dried overnight in a vacuum desiccator. Specific information on the contents of the preincubation buffers, assay buffers and other assay conditions are listed in Table 2. Finally, slides were opposed to a tritium-sensitive phosphor screen (Fuji imaging plate, GE Healthcare, Pittsburgh, PA, United States) for 5 days before being read in a phosphorimager (Typhoon FLA7000, GE Healthcare). Analysis methods are listed below under statistical analyses.
In saturation binding experiments, the concentration of the relevant radioligand in the assay buffer was systematically varied in order to determine the KD and Bmax of the receptor in question. At each radioligand concentration, the non-specific binding was determined on a separate slide by including a high concentration of a non-radioactive competitor ligand in the assay buffer along with the radioligand. For GABAA receptor saturation binding experiments, [^3H]muscimol was examined in quarter log steps ranging from 0.56 to 300 nM. For GABAB receptor saturation binding experiments, [^3H]CGP54626 was examined in quarter log steps ranging from 0.17 to 100 nM.
For saturation binding studies, the primary dependent measures were pKD and Bmax. First, a standard curve was generated by measuring optical intensity from a slide of tritium standards (American Radiolabeled Chemicals, St. Louis, MO, United States) included in the slide cassette during exposure. A linear regression was performed to determine the relationship between intensity and bound radioactivity (measured on the standards in units of μCi/g). Next, average intensity values from the non-specific bound condition for each concentration of radioligand was subtracted from intensity values from the total bound condition to produce a measure of specific binding for each radioligand concentration. These optical intensity values were transformed into bound radioactivity (expressed as nCi/mg) measurements by interpolation from the standard curve noted above. […]

SMILES | novel placement preference score (C57BL/6NCrlBr mice; subPCP/vehicle vs vehicle/vehicle mice, p < 0.01) | effect of treatment on [3H]CGP54626 Bmax (GABAB receptor) (GABAB receptor; subPCP vs saline/vehicle group, p < 0.05) | attenuation of subPCP-induced object placement task impairment (C57BL/6NCrlBr mice; subPCP-treated mice, 10 mg/kg s.c. bolus plus seven days 0.6 g/kg chow, p < 0.05) | object placement task performance vs vehicle/vehicle (C57BL/6NCrlBr mice; vortioxetine/vehicle group, mice without PCP) | [3H]CGP54626 Bmax (GABAB receptor), PCP/vortioxetine vs PCP/vehicle (GABAB receptor; subchronic vortioxetine combined with subPCP)
Cl.c1ccc(C2(N3CCCCC3)CCCCC2)cc1 [PCP, 1-(1-phenylcyclohexyl)-piperidine hydrochloride] | significantly reduced novel placement preference scores | significant reductions | – | – | –
Cc1ccc(Sc2ccccc2N2CCNCC2)c(C)c1 [vortioxetine] | – | – | significantly attenuated | did not perform significantly better | no significant differences

— paper PMC5845537 (Frontiers in Pharmacology, 2018)
